From ChEMBL document CHEMBL2413064, “Synthesis and α-glucosidase inhibitory activity evaluation of N-substituted aminomethyl-β-d-glucopyranosides” (Bioorg Med Chem, 2013)
pIC50, pKi: −log10 of the molar value.

Key:
Alpha-glucosidase MAL12 = Alpha-glucosidase MAL12 (Saccharomyces cerevisiae S288c, UniProt P53341); assay: Inhibition of Saccharomyces cerevisiae alpha-glucosidase assessed as 4-nitrophenol release from 4-nitrophenyl alpha-D-glucopyranoside preincubated for 15 mins measured after 15 mins
[1] = molecular target: Maltase-glucoamylase, intestinal (Rattus norvegicus)
[2] = molecular target: T1, Sucrase-isomaltase, intestinal (Rattus norvegicus, UniProt P23739); assay: Inhibition of rat intestinal sucrase using sucrose as substrate assessed as D-glucose release from substrate preincubated for 15 mins measured after 60 mins
[3] = molecular target: T1, Sucrase-isomaltase, intestinal; assay: Competitive inhibition of rat intestinal sucrase using sucrose as substrate by Lineweaver-Burk plot analysis

T1 sequence (P23739 1-1013 limits assumed): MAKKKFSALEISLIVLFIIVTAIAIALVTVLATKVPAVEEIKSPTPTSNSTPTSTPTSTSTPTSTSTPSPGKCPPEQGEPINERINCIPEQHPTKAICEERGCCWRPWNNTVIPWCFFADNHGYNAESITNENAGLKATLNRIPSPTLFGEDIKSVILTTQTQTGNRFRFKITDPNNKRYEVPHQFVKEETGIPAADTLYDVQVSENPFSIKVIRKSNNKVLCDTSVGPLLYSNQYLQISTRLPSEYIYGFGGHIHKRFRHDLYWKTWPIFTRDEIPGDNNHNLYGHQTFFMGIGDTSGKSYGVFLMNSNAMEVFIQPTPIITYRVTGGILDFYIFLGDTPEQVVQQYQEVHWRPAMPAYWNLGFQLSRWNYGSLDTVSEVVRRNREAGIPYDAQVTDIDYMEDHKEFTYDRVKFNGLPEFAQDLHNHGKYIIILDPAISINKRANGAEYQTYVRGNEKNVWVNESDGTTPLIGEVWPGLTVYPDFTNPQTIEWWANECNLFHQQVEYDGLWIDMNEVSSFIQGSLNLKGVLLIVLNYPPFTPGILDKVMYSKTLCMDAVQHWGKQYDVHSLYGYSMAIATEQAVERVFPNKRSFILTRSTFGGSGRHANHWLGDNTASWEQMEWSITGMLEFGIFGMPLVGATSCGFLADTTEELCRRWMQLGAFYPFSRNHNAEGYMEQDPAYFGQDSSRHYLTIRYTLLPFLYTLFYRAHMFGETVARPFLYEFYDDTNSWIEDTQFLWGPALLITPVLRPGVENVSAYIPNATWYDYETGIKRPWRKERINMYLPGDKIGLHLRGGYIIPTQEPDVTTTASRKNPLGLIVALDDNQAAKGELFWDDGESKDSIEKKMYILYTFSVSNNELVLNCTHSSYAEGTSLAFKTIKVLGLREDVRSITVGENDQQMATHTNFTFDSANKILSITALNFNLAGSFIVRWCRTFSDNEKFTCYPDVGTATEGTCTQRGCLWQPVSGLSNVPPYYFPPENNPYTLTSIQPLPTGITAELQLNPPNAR
T1 sequence (P23739 1014-1841 limits assumed): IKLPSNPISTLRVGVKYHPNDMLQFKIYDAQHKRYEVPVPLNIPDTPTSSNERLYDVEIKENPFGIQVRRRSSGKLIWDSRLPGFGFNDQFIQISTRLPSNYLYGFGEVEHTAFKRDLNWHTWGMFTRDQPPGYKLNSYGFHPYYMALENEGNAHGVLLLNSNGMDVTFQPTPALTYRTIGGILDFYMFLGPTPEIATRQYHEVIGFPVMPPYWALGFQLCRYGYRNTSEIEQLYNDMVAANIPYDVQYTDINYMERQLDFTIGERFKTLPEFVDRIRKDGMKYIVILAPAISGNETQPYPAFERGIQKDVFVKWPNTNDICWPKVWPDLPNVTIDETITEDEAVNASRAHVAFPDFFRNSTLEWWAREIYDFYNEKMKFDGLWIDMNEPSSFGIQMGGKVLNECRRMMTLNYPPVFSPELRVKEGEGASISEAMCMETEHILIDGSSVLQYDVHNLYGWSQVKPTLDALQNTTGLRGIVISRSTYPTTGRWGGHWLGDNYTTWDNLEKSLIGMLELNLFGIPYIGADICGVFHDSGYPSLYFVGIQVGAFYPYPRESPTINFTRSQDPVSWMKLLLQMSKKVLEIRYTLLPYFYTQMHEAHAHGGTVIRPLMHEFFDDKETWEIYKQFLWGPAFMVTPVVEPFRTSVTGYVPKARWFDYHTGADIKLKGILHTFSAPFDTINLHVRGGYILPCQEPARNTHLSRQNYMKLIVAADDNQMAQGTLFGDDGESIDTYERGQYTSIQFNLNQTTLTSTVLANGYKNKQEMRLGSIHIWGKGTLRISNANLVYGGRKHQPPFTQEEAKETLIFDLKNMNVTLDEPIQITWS
Alpha-glucosidase MAL12, sequence (P53341 whole entry): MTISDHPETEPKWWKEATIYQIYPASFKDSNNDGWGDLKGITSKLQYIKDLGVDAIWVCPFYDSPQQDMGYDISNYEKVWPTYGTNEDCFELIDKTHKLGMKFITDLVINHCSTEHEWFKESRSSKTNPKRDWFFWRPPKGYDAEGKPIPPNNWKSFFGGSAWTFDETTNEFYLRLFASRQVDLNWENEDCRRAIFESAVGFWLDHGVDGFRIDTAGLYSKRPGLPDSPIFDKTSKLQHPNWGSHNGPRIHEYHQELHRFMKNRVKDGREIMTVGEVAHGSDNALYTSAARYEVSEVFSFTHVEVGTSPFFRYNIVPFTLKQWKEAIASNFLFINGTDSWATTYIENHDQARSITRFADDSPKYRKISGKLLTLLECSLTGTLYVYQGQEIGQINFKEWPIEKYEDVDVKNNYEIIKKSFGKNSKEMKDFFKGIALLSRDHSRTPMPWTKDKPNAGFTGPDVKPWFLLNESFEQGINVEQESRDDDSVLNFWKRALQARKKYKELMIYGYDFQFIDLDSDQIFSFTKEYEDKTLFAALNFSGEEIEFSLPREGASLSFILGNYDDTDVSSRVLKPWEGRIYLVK

Structure (SMILES)	pIC50 (Alpha-glucosidase MAL12)	pIC50 [1]	pIC50 [2]	pKi [3]
COc1cc(CNC[C@@H]2O[C@H](CO)[C@@H](O)[C@H](O)[C@H]2O)ccc1O	3.42	3.65	3.73	
COc1ccc(C(C)NC[C@@H]2O[C@H](CO)[C@@H](O)[C@H](O)[C@H]2O)cc1O (stereo partly specified)	3.73		3.97	
COc1ccc(C(=O)NC[C@@H]2O[C@H](CO)[C@@H](O)[C@H](O)[C@H]2O)c(OC)c1	2.73		< 2.70	
O=C(/C=C/c1ccc(O)cc1)NC[C@@H]1O[C@H](CO)[C@@H](O)[C@H](O)[C@H]1O	5.25		3.39	
OC[C@H]1O[C@@H](CNCc2ccc(Cl)cc2Cl)[C@H](O)[C@@H](O)[C@@H]1O	3.50		3.81	
COc1ccc(C(=O)NC[C@@H]2O[C@H](CO)[C@@H](O)[C@H](O)[C@H]2O)cc1	3.64	3.08	3.10	
CC(=O)Oc1ccc(/C=C/C(=O)NC[C@@H]2O[C@H](CO)[C@@H](O)[C@H](O)[C@H]2O)cc1OC(C)=O	3.45		4.98	4.77
CC(=O)Oc1ccc(C(=O)NC[C@@H]2O[C@H](CO)[C@@H](O)[C@H](O)[C@H]2O)cc1	4.02	3.78	3.79	
Cc1ccc(S(=O)(=O)NC[C@@H]2O[C@H](CO)[C@@H](O)[C@H](O)[C@H]2O)cc1	3.99	3.32	2.85	
O=C(NC[C@@H]1O[C@H](CO)[C@@H](O)[C@H](O)[C@H]1O)c1ccccc1O	3.33	2.99	< 2.70	
OC[C@H]1O[C@@H](CNCc2ccc(Cl)c(Cl)c2)[C@H](O)[C@@H](O)[C@@H]1O	3.21	3.65	3.84	
OC[C@H]1O[C@@H](CNCc2ccccc2)[C@H](O)[C@@H](O)[C@@H]1O	4.41	2.88	3.57	
COc1ccc(CNC[C@@H]2O[C@H](CO)[C@@H](O)[C@H](O)[C@H]2O)cc1O	3.33	3.39	3.73	
O=C(/C=C/c1ccccc1)NC[C@@H]1O[C@H](CO)[C@@H](O)[C@H](O)[C@H]1O	5.64		3.50	
COc1ccccc1C(=O)NC[C@@H]1O[C@H](CO)[C@@H](O)[C@H](O)[C@H]1O	3.33	3.14	2.96	
COc1ccc(CNC[C@@H]2O[C@H](CO)[C@@H](O)[C@H](O)[C@H]2O)c(OC)c1	3.21	3.80	3.98	
O=C(NC[C@@H]1O[C@H](CO)[C@@H](O)[C@H](O)[C@H]1O)c1ccco1	3.27		3.11	
CC(=O)Oc1ccc(/C=C/C(=O)NC[C@@H]2O[C@H](CO)[C@@H](O)[C@H](O)[C@H]2O)cc1	3.85		3.81	
OC[C@H]1O[C@@H](CNCc2cccs2)[C@H](O)[C@@H](O)[C@@H]1O	3.43	3.49	3.76	
O=C(NC[C@@H]1O[C@H](CO)[C@@H](O)[C@H](O)[C@H]1O)c1ccc(O)cc1	2.72	3.12	2.78	
O=[N+]([O-])c1cccc(CNC[C@@H]2O[C@H](CO)[C@@H](O)[C@H](O)[C@H]2O)c1	4.35	3.15	3.20	
COc1ccc(CNC[C@@H]2O[C@H](CO)[C@@H](O)[C@H](O)[C@H]2O)cc1	3.34	3.51	3.75	

Continued by rising pIC50 (Alpha-glucosidase MAL12), values first:

pIC50 (Alpha-glucosidase MAL12)	pIC50 [1]	pIC50 [2]	pKi [3]	Structure (SMILES)
2.82	3.33	3.39		O=C(NC[C@@H]1O[C@H](CO)[C@@H](O)[C@H](O)[C@H]1O)c1ccc(F)cc1
3.30	3.07	< 2.70		O=C(NC[C@@H]1O[C@H](CO)[C@@H](O)[C@H](O)[C@H]1O)c1ccccc1
3.33	3.23	3.00		O=C(NC[C@@H]1O[C@H](CO)[C@@H](O)[C@H](O)[C@H]1O)c1ccc(Cl)cc1Cl
3.49	3.35	< 2.70		O=C(NC[C@@H]1O[C@H](CO)[C@@H](O)[C@H](O)[C@H]1O)c1cccs1
3.55		3.42		O=C(NC[C@@H]1O[C@H](CO)[C@@H](O)[C@H](O)[C@H]1O)c1cccc([N+](=O)[O-])c1
3.65	5.11	4.81		CC(=O)Oc1cc(C(=O)NC[C@@H]2O[C@H](CO)[C@@H](O)[C@H](O)[C@H]2O)cc(OC(C)=O)c1OC(C)=O
3.81		3.74		OC[C@H]1O[C@@H](CNCc2ccccc2O)[C@H](O)[C@@H](O)[C@@H]1O
3.83		3.91		OC[C@H]1O[C@@H](CNCc2ccc(O)cc2)[C@H](O)[C@@H](O)[C@@H]1O
3.93		4.01		OC[C@H]1O[C@@H](CNC/C=C/c2ccccc2)[C@H](O)[C@@H](O)[C@@H]1O
3.94	3.69	3.52		OC[C@H]1O[C@@H](CNCc2ccc(F)cc2)[C@H](O)[C@@H](O)[C@@H]1O
3.99	3.42	3.60		COc1cc(/C=C/C(=O)NC[C@@H]2O[C@H](CO)[C@@H](O)[C@H](O)[C@H]2O)ccc1O
4.44	3.07	3.00		O=C(NC[C@@H]1O[C@H](CO)[C@@H](O)[C@H](O)[C@H]1O)c1ccc([N+](=O)[O-])cc1
